Measurements reported in patent US8148391B2 (Cephalon, Inc., priority 2006, dated 2012).
Read-outs that look alike come from different tables or passages of the source.

Legend:
[1] = biological target: T1, baculovirus-expressed ALK (Homo sapiens, UniProt Q9UM73); test: ALK Kinase Assay (ELISA-type, time-resolved fluorescence); type: biochemical
T1 construct: host or cells: baculovirus expression system
In short: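 Substrate coating: phospholipase C-γ, 10 μg/mL in TBS. Kinase step: 30 ng/ml ALK, 15 min, 37° C. Detection and analysis: Eu-N1 PT66 antibody, with IC50 fitted as a sigmoidal variable-slope dose-response curve.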

[2] = biological target: T2, c-Met (cytoplasmic domain) (Homo sapiens, UniProt P08581); test: c-Met Kinase Assay (same methods as for ALK, with modifications); type: biochemical
T2 construct: 10 ng/mL c-Met (cytoplasmic domain, Invitrogen Corporation #PV3143); purchased Invitrogen Corporation PV3143
In short: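 This plate-based kinase format uses immobilized phospholipase C-γ as substrate, phosphorylated by c-Met cytoplasmic domain (10 ng/mL) at 37° C for 15 minutes.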

[3] = ALK kinase inhibition, 1 μM ATP (Km level), read-out: ALK Activity
[4] = c-Met kinase inhibition, 1 μM ATP (Km level), read-out: cMet Activity
[5] = ALK kinase inhibition, 1 μM ATP, read-out: ALK Activity
[6] = c-Met kinase inhibition, 1 μM ATP, read-out: cMet Activity
[7] = 1 μM ATP (Km level), read-out: ALK Activity (ALK Kinase Inhibition, IC50)
[8] = 1 μM ATP (Km level), read-out: cMet Activity (c-Met Kinase Inhibition, IC50)

T2 sequence (P08581 956-1390 limits assumed): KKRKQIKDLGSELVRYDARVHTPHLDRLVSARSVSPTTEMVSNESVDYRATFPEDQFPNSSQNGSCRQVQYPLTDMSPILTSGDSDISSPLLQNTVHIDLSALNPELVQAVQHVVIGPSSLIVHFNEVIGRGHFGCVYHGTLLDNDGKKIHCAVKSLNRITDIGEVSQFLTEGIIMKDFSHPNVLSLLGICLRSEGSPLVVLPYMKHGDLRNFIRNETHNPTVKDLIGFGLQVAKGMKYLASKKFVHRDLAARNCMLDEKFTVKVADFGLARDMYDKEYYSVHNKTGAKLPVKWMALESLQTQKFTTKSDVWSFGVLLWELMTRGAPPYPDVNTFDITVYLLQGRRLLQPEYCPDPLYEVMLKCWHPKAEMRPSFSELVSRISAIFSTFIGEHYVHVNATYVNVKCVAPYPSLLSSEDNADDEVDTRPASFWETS
T1 sequence (Q9UM73 19-1620): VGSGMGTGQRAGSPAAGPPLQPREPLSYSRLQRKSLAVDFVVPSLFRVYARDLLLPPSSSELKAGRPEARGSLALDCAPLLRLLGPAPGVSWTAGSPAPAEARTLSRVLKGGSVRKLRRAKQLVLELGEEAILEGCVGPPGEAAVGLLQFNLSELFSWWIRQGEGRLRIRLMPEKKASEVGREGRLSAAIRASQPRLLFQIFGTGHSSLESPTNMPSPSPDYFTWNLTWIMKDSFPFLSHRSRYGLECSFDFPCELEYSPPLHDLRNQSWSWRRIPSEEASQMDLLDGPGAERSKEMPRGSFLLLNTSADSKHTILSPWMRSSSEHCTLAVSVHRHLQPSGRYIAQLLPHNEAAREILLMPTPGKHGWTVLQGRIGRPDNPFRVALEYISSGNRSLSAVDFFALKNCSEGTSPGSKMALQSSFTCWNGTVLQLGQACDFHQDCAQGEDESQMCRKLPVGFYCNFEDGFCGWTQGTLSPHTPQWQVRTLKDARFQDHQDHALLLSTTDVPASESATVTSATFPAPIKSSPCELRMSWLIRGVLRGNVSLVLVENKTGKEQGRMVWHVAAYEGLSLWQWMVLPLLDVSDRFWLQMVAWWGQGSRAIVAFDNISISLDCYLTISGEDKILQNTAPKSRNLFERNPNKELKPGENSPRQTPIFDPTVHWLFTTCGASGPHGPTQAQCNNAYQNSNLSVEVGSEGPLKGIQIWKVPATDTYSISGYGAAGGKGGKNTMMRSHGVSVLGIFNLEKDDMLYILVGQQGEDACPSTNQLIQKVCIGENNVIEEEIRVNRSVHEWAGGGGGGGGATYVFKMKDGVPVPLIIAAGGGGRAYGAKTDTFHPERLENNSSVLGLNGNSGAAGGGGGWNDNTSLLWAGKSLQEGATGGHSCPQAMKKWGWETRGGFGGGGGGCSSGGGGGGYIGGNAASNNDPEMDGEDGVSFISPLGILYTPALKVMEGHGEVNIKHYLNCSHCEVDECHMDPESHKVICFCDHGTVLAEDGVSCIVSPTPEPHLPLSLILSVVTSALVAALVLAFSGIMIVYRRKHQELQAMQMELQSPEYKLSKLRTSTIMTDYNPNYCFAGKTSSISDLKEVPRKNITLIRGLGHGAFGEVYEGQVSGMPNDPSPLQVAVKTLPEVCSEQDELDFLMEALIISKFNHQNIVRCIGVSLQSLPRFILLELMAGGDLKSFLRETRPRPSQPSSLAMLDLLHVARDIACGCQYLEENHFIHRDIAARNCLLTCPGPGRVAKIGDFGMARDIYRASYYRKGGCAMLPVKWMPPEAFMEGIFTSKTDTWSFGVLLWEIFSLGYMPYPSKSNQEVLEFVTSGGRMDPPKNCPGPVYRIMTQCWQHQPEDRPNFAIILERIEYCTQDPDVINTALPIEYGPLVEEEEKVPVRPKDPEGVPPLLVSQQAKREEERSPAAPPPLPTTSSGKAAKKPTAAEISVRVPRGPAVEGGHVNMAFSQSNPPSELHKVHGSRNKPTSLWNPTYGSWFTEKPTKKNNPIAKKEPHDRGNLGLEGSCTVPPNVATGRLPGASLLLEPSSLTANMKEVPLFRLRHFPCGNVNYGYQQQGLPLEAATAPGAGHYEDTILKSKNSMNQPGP

| IC50 [1, 5] [nM] | IC50 [2, 6] [nM] | IC50 [1, 7] [nM] | IC50 [2, 8] [nM] | Compound | other results |
| --- | --- | --- | --- | --- | --- |
| 100 to 1000 | < 100 |  |  | C#CCNC(=O)c1cccc(F)c1Nc1nc(Nc2ccc3c(c2)N(C(C)=O)CCCC3(C)C)ncc1Cl [Example 1602, 2-[2-(1-Acetyl-5,5-dimethyl-2,3,4,5-tetrahydro-1H-benzo[b]azepin-8-ylamino)-5-chloro-pyrimidin-4-ylamino]-3-fluoro-N-prop-2-ynyl-benzamide] |  |
|  |  | < 100 | > 10000 | COc1cc2c(cc1Nc1ncc(Cl)c(N[C@H]3[C@@H](C(N)=O)[C@@H]4C=C[C@H]3C4)n1)N(C)C(=O)CNC2 [Example 743, (1S,2S3,R,4R)-3-[5-Chloro-2-(7-methoxy-1-methyl-2-oxo-2,3,4,5-tetrahydro-1H-benzo[e][1,4]diazepin-8-ylamino)-pyrimidin-4-ylamino]-bicyclo[2.2.1]hept-5-ene-2-carboxylic acid amide] |  |
|  |  | 1000 to 10000 | > 10000 | CC1(C)CCCOc2c(Nc3ncc(Cl)c(Nc4ccccc4OCC#N)n3)cccc21 [Example 880, {2-[5-Chloro-2-(5,5-dimethyl-2,3,4,5-tetrahydro-benzo[b]oxepin-9-ylamino)-pyrimidin-4-ylamino]-phenoxy}-acetonitrile] |  |

The next lines start with the compound.

| Compound | IC50 [1, 5] [nM] | IC50 [2, 6] [nM] | IC50 [1, 7] [nM] | IC50 [2, 8] [nM] | other results |
| --- | --- | --- | --- | --- | --- |
| CNS(=O)(=O)c1ccccc1Nc1nc(Nc2ccc3c(c2)C2CCC3CN(S(C)(=O)=O)C2)ncc1Cl (stereo not shown) [Example 286, 2-[5-Chloro-2-(10-methanesulfonyl-10-aza-tricyclo[6.3.2.0*2,7*]trideca-2,4,6-trien-4-ylamino)-pyrimidin-4-ylamino]-N-methyl-benzenesulfonamide] |  |  |  |  | IC50 [1, 3]: < 100 nM; IC50 [2, 4]: < 100 nM |
| CNC(=O)c1cccc(F)c1Nc1nc(Nc2ccc3c(c2)CCN(C[C@@H](O)C(F)(F)F)CC3)ncc1Cl [Example 332, 2-{5-Chloro-2-[3-((R)-3,3,3-trifluoro-2-hydroxy-propyl)-2,3,4,5-tetrahydro-1H-benzo[d]azepin-7-ylamino]-pyrimidin-4-ylamino}-3-fluoro-N-methyl-benzamide] |  |  |  |  | IC50 [1, 3]: < 100 nM; IC50 [2, 4]: < 100 nM |
| CNC(=O)c1ccccc1Nc1nc(Nc2ccc3c(c2)CC(=O)NCC3)ncc1Cl [Example 1811, 2-[5-Chloro-2-(4-oxo-2,3,4,5-tetrahydro-1H-benzo[d]azepin-7-ylamino)-pyrimidin-4-ylamino]-N-methylbenzamide] | < 100 | < 100 |  |  |  |
| CC1(C)CCCOc2c(Nc3ncc(Cl)c(N[C@@H]4CCCC[C@H]4NS(C)(=O)=O)n3)cccc21 [Example 875, N-{(1R,2R)-2-[5-Chloro-2-(5,5-dimethyl-2,3,4,5-tetrahydro-benzo[b]oxepin-9-ylamino)-pyrimidin-4-ylamino]-cyclohexyl}-methanesulfonamide] |  |  | < 100 | > 10000 |  |
| CNC(=O)c1cccc(Br)c1Nc1nc(Nc2ccc3c(c2)CCOC(=O)N3C)ncc1Cl [Example 1751, 3-Bromo-2-[5-chloro-2-(5-methyl-6-oxo-5,6,8,9-tetrahydro-7-oxa-5-aza-benzocyclohepten-2-ylamino)-pyrimidin-4-ylamino]-N-methyl-benzamide] | 1000 to 10000 | < 100 |  |  |  |
| {2-[2-(1-Acetyl-4-oxo-1,2,3,4,5,6-hexahydro-benzo[b][1,5]diazocin-8-ylamino)-5-chloro-pyrimidin-4-ylamino]-3-methyl-phenoxy}-acetonitrile [Example 1247] |  |  |  |  | IC50 ([1]; 1 μM ATP (Km level), 30 ng/ml ALK, 37° C., 15 minutes, read-out: ALK Activity (ALK kinase inhibition, IC50 class)): < 100 nM; IC50 ([2]; 1 μM ATP (Km level), 10 ng/mL c-Met, read-out: cMet Activity (c-Met kinase inhibition, IC50 class)): 100 to 1000 nM |
| CNC(=O)c1scc(C)c1Nc1nc(Nc2ccc3c(c2)CCC(=O)NC3(C)C)ncc1Cl [Example 1829] | 1000 to 10000 | < 100 |  |  |  |
| CNC(=O)c1cccc(F)c1Nc1nc(Nc2ccc3c(c2)CCC(NCC(F)F)CC3)ncc1Cl (stereo not shown) [Example 664, 2-{5-Chloro-2-[7-(2,2-difluoro-ethylamino)-6,7,8,9-tetrahydro-5H-benzocyclohepten-2-ylamino]-pyrimidin-4-ylamino}-3-fluoro-N-methyl-benzamide] |  |  | < 100 | < 100 |  |
